According to patent publication US9550756B2, “Pyridazinone compounds as phosphodiesterase inhibitors and methods of treating disorders” (Takeda Pharmaceutical Company Limited, priority 2009, dated 2017):

system: Male ICR mice; experiment: Improvement of MK-801-induced prepulse inhibition (PPI) deficits; type: in vivo; conditions: 0.3 mg/kg, MK-801 0.3 mg/kg s.c., FIG. 3
From the text: Male ICR mice were supplied by CLEA Japan, Inc (Japan). After arrival to the vivarium, animals were allowed a minimum of 1 week for acclimation. They were housed under a 12:12-h light/dark cycle in a temperature- and humidity-controlled laboratory and allowed food and water ad libitum. The care and use of the animals and the experimental protocols used in this research were approved by the Experimental Animal Care and Use Committee of Takeda Pharmaceutical Company, Ltd (Osaka, Japan).
The compounds were suspended in 0.5% methylcellulose in saline or distilled water, and administered by intraperitoneally (i.p.) or orally (p.o.), respectively. Methamphetamine (Dainippon Sumitomo Pharma Co., Ltd.) and MK-801 (Sigma-Aldrich, St Louis, Mo.) were dissolved in saline, and administered subcutaneously (s.c.). […]
PPI is a measure of sensorimotor gating and is one of a few neuropsychological measures in which humans and rodents can be evaluated in a similar fashion (Psychopharmacology (Berl) 2001, vol. 156: 117-154). We evaluated whether compound could reverse PPI deficits induced by MK-801 using male ICR mice. […] Placement of mice inside the cylinders allowed the whole-body startle responses induced by the acoustic stimuli to be measured via the transduction of movement into analog signals by a piezoelectric unit attached to the platform. […]

Compound | MK-801-induced PPI deficits
Cc1nc2n(c(=O)c1CCN1CCC(c3noc4cc(F)ccc34)CC1)CCCC2 [Risperidone] | significantly reversed

system: not given; experiment: not given; conditions: not given

melting point [°C] | Compound
202 to 203 | O=c1ccn(-c2ccncc2)nc1-c1ccnn1-c1ccccc1 [Example 31, 3-(1-Phenyl-1H-pyrazol-5-yl)-1-pyridin-4-ylpyridazin-4(1H)-one]
166 to 167 | O=c1ccn(-c2cccc(C(F)(F)F)c2)nc1-c1ccnn1-c1ccc(Cl)cc1 [Example 3, 3-[1-(4-Chlorophenyl)-1H-pyrazol-5-yl]-1-[3-(trifluoromethyl)phenyl]pyridazin-4(1H)-one]
167 to 168 | O=c1ccn(-c2cccc(C(F)(F)F)c2)nc1-c1ncnn1-c1ccccc1 [Example 42, 3-(1-Phenyl-1H-1,2,4-triazol-5-yl)-1-[3-(trifluoromethyl)phenyl]pyridazin-4(1H)-one]
183 to 184 | CC(C)n1nccc1-c1nn(-c2cccc(C(F)(F)F)c2)ccc1=O [Example 33, 3-[1-(1-Methylethyl)-1H-pyrazol-5-yl]-1-[3-(trifluoromethyl)phenyl]pyridazin-4(1H)-one]
120 to 121 | CC(C)Cn1nccc1-c1nn(-c2cccc(C(F)(F)F)c2)ccc1=O [Example 34, 3-[1-(2-Methylpropyl)-1H-pyrazol-5-yl]-1-[3-(trifluoromethyl)phenyl]pyridazin-4(1H)-one]
189 to 190 | O=c1ccn(-c2cccc(C(F)(F)F)c2)nc1-c1ccnn1-c1ccccn1 [Example 35, 3-(1-Pyridin-2-yl-1H-pyrazol-5-yl)-1-[3-(trifluoromethyl)phenyl]pyridazin-4(1H)-one]
138 to 140 | CC(C)n1cc(-c2nn(-c3cccc(C(F)(F)F)c3)ccc2=O)c(-c2ccccc2)n1 [Example 77, 3-[1-(1-Methylethyl)-3-phenyl-1H-pyrazol-4-yl]-1-[3-(trifluoromethyl)phenyl]pyridazin-4(1H)-one]
218 to 220 | O=c1c(O)cn(-c2ccccc2F)nc1-c1ccnn1-c1ccccc1 [Example 63, 1-(2-Fluorophenyl)-5-hydroxy-3-(1-phenyl-1H-pyrazol-5-yl)pyridazin-4(1H)-one]
132 to 134 | O=c1c(OC(F)F)cn(-c2cccc(C(F)(F)F)c2)nc1-c1ccnn1-c1ccccc1 [Example 62, 5-(Difluoromethoxy)-3-(1-phenyl-1H-pyrazol-5-yl)-1-[3-(trifluoromethyl)phenyl]pyridazin-4(1H)-one]
149 to 150 | O=c1ccn(-c2cccc(Oc3nc4ccccc4[nH]3)c2)nc1-c1ccnn1-c1ccccc1 [Example 37, 1-[3-(1H-Benzimidazol-2-yloxy)phenyl]-3-(1-phenyl-1H-pyrazol-5-yl)pyridazin-4(1H)-one]
